From patent publication US11466020B2, “Compounds and compositions for inhibition and elimination of Zika infection and uses for same” (Cornell University, priority 2017, dated 2022)
Structures can show the parent of a compound that is named as a salt.

Key:
ZIKV MR766 = test: Elimination of ZIKV from infected hNPCs (drug applied 2 h post infection, 3 days drug, 3 days drug-free); type: cell-based, Zika virus; conditions: for ZIKV infection of hNPCs at day 6: 3 days treatment followed by 3 days culture without drug; for ZIKV infection rate of hNPCs at day 3: day 3 of treatment
Experimental: (A) Scheme to evaluate the elimination of ZIKV. At day 0, hNPCs were infected with ZIKV for 2 h. After removal of ZIKV infection medium, hNPCs were treated with drug candidates. At day 3, the culture medium was changed to fresh medium without compounds. The cells were maintained in drug-free culture until day 6 and used for immunohistochemistry and qRT-PCR. (B and C) Inhibitory curve and IC50 of HH calculated based on the infection rate (B) and normalized cell viability (C) (n=6). (D and E) Immunocytochemistry analysis (D) and the quantification of infection rate, cell apoptosis rate, and total cell number (E) of hNPCs on day 3 and day 6. Cells was fixed and stained with cleaved Caspase-3 (CAS3), ZIKV E and DAPI. Scale bars, 100 μm. (F) qRT-PCR analysis to monitor the total ZIKV vRNA in the supernatant of hNPC cultures on day 6. Scale bars, 200 μm. (n=3). (G) Vero cell reinfection assay to monitor the infective ZIKV vRNA in the supernatant of hNPC cultures at day 6 after ZIKV infection. Scale bars, 200 μm. (n=3). (H) Quantification of ZIKV infectious particles produced by ZIKV-infected hNPCs at day 6 by the Vero cell reinfection assay. (I) hNPCs with or without ZIKV infection treated with HH maintain hNPC marker expression and differentiation capacity. hNPCs with or without ZIKV MR766 infection were treated with 25 μM HH or DMSO for 3 days and then stained for SOX2, NESTIN and with DAPI. hNPCs with or without ZIKV infection and treated with HH or DMSO for 3 days were differentiated to cortical neurons. The cortical neurons were then fixed and stained for MAP2, TUJ1 and with DAPI. Scale bars, 100 μm. (n=3). (J) ZIKV (MR766 strain) dynamics in hNPCs. qRT-PCR analysis to quantify the total and replicating (−) strand vRNAs in the hNPCs at different time points post infection. […] (K) qRT-PCR analysis of hNPCs, on which 25 μM HH or DMSO were added at 24 h, 36 h and 48 h post-ZIKV (MR766 strain) infection and maintained for additional 3 days. p values were calculated by unpaired two-tailed Student's t-test. *p<0.05, **p<0.01 and ***p<0.001, if not mentioned specifically.
HH eliminates virus from ZIKV infected hNPCs. To determine whether the drug candidates are capable of eliminating ZIKV in previously infected hNPCs, HH or AQ was applied 2 h post ZIKV infection (FIG. 2A).
ZIKV-infected hNPCs were treated with HH or AQ for 3 days, followed by 3 days culture in drug-free medium. Immunocytochemical analysis of ZIKV E, cleaved-caspase-3 (CAS3) and DAPI were performed at day 0 (just before ZIKV infection), day 3, and day 6 to measure the ZIKV infection rate, cell death rate and total cell numbers, respectively. […] In addition, neither ZIKV vRNA, as indicated by qRT-PCR (FIG. 2F), or production of infectious ZIKV, as indicated by a Vero cell re-infection assay, was detected in day 6 supernatant of HH-treated conditions (FIGS. 2G and 2H). […] In contrast, hNPCs without HH treatment underwent significant cell death after 3 days of ZIKV infection, and there were no cells detected after cortical neuron differentiation (data not shown).
Generation of inhibitory curves. hNPCs were plated on 96-well plates with Accutase digestion at 8.5×10^4/cm^2 density and incubated overnight. For generating inhibitory curves of compound for inhibiting ZIKV infection, cells were first treated with DMSO or different doses of hit compounds for 1 h before ZIKV infection. The cells were then infected with ZIKV MR766 at a MOI=0.125. After 2 h of infection, the virus-containing medium was replaced by fresh virus-free medium and compounds were added again to the same wells. For generating inhibitory curves of compound for eliminating ZIKV, compounds were instead added after ZIKV infection. After 3 days incubation, the cells were fixed and stained for ZIKV envelope protein (ZIKV E) and DAPI was used to stain cell nuclei. Plates were analyzed with the ImageXpress^MICRO Automated High-Content Analysis System. IC50 was calculated using MasterPlex Reader Fit 2010.

[1] = system: transcriptional changes induced by ZIKV (MR766 strain) infection; test: RNA-seq analysis of ZIKV infected hNPCs; type: cell-based, human; conditions: 72 h post-inoculation, 25 μM HH or 15 μM AQ
[2] = compound applied 2 h post ZIKV infection

Structure (SMILES) | ZIKV infection of hNPCs at day 6 (ZIKV MR766) | IC50 for eliminating versus inhibiting ZIKV (ZIKV MR766; [2]) | elimination of ZIKV infection in previously infected hNPCs (ZIKV MR766; [2]) | ZIKV infection rate of hNPCs at day 3 (ZIKV MR766) | transcriptional changes induced by ZIKV infection (RNA-seq) [1]
CN1CCC2=C[C@H](O)[C@H]3OC(=O)c4cc5c(cc4[C@H]3[C@@H]21)OCO5 [HH, hippeastrine hydrobromide] | remained undetectable | comparable IC50 values | capable of eliminating ZIKV infection | undetectable levels | reversed the transcriptional changes
CCN(CC)Cc1cc(Nc2ccnc3cc(Cl)ccc23)ccc1O [AQ, amodiaquine dihydrochloride dihydrate] | comparable to the level of infection in the DMSO control condition | – | capable of eliminating ZIKV infection | undetectable levels | reversed the transcriptional changes
